Legend:
EP2 = EP2 (Homo sapiens, UniProt P43116); assay: EP2 binding (Ki)
Source text: (§1) U.S. patent application Ser. No. 11/553,143, filed on Oct. 26, 2006, incorporated by reference herein, describes the methods used to obtain the in vitro data in the table below.

hDP = target: T1, hDP (Homo sapiens, UniProt Q13258); assay: Other receptors functional EC50, hDP; type: cell-based
T1 sequence (Q13258 1-359): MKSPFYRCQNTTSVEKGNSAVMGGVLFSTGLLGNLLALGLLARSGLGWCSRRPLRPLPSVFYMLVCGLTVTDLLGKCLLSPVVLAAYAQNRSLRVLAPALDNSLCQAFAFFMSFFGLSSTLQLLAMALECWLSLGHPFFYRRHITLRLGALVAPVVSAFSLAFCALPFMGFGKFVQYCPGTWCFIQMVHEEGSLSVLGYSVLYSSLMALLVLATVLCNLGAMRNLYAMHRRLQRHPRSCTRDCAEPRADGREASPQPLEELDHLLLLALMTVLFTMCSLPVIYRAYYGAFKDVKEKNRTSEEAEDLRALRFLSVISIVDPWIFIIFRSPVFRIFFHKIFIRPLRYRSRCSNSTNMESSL
Source text: as §1

hTP = target: T2, hTP (Homo sapiens, UniProt P21731); assay: Other receptors functional EC50, hTP; type: cell-based
T2 sequence (P21731 1-343): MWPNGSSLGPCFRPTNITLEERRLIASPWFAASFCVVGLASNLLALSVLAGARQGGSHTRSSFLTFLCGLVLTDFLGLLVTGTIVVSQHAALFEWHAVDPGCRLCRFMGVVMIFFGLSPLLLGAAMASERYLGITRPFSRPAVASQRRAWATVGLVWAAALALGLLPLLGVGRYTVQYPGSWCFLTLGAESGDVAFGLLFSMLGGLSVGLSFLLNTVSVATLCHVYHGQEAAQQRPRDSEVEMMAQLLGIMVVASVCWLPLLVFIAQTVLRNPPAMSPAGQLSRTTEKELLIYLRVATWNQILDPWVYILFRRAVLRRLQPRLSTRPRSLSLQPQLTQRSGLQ
Source text: as §1

Chain of EP2 (P43116 whole entry): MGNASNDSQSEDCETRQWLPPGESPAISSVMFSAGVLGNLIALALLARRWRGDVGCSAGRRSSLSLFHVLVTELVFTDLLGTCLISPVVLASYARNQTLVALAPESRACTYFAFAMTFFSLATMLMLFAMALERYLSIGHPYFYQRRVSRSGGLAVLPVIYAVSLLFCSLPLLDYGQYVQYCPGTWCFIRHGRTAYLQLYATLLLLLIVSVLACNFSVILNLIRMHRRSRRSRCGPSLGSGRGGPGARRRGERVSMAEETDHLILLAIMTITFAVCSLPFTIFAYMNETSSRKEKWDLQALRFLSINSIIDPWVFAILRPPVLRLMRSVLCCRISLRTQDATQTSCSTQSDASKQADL

Compound	Ki (EP2)	EC50 (hDP)	EC50 (hTP)
CCCCCC(O)c1ccc(N(CCCc2ccc(C(=O)O)s2)C(C)=O)cc1 (stereo not drawn) [5-(-3-(N-(4-(1-hydroxyhexyl)phenyl)acetamido)propyl)thiophene-2-carboxylic acid]	> 10 µM	4.76 µM	–
CCCCCC(O)c1ccc(N(CC#CCCCC(=O)O)C(C)=O)cc1 (stereo not drawn) [7-(N-(4-(1-hydroxyhexyl)phenyl)acetamido)hept-5-ynoic acid]	–	–	8.53 µM
